The target in experiment [1] is T1, Alpha-1D adrenergic receptor (Homo sapiens) (UniProt P25100).
T1 sequence (whole entry): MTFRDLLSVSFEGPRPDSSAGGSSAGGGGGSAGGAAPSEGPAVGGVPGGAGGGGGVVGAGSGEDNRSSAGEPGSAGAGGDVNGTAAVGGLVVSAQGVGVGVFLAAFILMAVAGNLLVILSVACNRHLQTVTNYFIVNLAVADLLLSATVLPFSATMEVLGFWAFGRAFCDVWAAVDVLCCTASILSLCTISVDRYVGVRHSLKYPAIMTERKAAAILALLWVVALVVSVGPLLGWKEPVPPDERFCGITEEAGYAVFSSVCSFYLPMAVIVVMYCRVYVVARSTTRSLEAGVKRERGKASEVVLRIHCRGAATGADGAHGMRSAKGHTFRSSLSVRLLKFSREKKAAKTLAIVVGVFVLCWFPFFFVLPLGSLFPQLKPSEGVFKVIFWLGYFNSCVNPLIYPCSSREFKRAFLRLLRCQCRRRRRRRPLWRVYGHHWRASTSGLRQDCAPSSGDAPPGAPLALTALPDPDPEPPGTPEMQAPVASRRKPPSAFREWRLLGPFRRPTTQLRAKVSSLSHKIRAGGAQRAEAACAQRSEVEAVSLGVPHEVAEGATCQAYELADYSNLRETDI
Description: Inhibition of Adrenergic alpha1D at 10 µM in the Eurofins-Panlabs radioligand binding assay (Eurofins_assay_203400). The following applies: Compound concentration 10.0 uM.

The target of experiment [2] is Neuropeptide Y receptor type 1 (Homo sapiens) (UniProt P25929). Description: Inhibition of Neuropeptide Y Y1 at 10 µM in the Eurofins-Panlabs radioligand binding assay (Eurofins_assay_257010). The following applies: Compound concentration 10.0 uM.
The species named for experiment [3] is Mus musculus. Put plainly: Inhibition of Phorbol Ester at 10 µM in the Eurofins-Panlabs radioligand binding assay (Eurofins_assay_264500). Also on record: ligand concentration 3 nM. The following applies: Compound concentration 10.0 uM.
The species named for experiment [4] is Oryctolagus cuniculus. Put plainly: Inhibition of Purinergic P2X at 10 µM in the Eurofins-Panlabs radioligand binding assay (Eurofins_assay_268700). In kind it is protein assay. The following applies: Compound concentration 10.0 uM.
In experiment [5] the target is Sigma non-opioid intracellular receptor 1 (Homo sapiens) (UniProt Q99720). Description: Sigma 1 Eurofins-Panlabs radioligand binding assay. The arrangement: ligand concentration 8 nM. To be noted: Compound concentration 10.0 uM.
The test system of experiment [6] is Platelet. Description: Inhibition of platelet aggregation (human plasma, TRAP-6) (IC50). Type of experiment: cell-based.
Experiment [7] has as its target 5-hydroxytryptamine receptor 5A (Homo sapiens) (UniProt P47898). The following applies: Compound concentration 10.0 uM.
In experiment [8] the target is T2, Adenosine receptor A3 (Homo sapiens) (UniProt P0DMS8).
T2 sequence (whole entry): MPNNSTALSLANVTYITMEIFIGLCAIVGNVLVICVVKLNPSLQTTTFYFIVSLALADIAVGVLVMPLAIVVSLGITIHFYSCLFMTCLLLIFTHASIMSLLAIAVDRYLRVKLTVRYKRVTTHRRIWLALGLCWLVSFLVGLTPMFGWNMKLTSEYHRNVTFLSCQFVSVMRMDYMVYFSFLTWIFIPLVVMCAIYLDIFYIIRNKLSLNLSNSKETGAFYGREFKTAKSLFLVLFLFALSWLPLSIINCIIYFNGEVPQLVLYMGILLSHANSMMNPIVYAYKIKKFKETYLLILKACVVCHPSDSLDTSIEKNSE
The following applies: Compound concentration 10.0 uM.

The target in experiment [9] is Endothelin-1 receptor (Homo sapiens) (UniProt P25101). The following applies: Compound concentration 10.0 uM.
The target of experiment [10] is Histamine H1 receptor (Homo sapiens) (UniProt P35367). The following applies: Compound concentration 10.0 uM.
In experiment [11] the target is Histamine H2 receptor (Homo sapiens) (UniProt P25021). To be noted: Compound concentration 10.0 uM.
The target of experiment [12] is T3, Muscarinic acetylcholine receptor M1 (Homo sapiens) (UniProt P11229).
T3 sequence (whole entry): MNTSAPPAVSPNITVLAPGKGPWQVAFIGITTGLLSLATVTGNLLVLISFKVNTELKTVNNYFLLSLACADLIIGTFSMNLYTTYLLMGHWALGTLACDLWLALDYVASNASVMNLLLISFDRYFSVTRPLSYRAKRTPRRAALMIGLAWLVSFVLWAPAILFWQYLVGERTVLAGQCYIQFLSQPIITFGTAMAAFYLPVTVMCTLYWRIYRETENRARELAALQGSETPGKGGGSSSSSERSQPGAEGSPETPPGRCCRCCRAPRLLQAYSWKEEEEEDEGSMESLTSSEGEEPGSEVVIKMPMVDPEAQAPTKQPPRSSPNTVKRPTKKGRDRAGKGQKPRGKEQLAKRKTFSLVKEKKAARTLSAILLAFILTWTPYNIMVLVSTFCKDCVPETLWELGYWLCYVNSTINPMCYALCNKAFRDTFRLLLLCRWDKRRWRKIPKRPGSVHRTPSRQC
To be noted: Compound concentration 10.0 uM.

Experiment [13] has as its target T4, Muscarinic acetylcholine receptor M2 (Homo sapiens) (UniProt P08172).
T4 sequence (whole entry): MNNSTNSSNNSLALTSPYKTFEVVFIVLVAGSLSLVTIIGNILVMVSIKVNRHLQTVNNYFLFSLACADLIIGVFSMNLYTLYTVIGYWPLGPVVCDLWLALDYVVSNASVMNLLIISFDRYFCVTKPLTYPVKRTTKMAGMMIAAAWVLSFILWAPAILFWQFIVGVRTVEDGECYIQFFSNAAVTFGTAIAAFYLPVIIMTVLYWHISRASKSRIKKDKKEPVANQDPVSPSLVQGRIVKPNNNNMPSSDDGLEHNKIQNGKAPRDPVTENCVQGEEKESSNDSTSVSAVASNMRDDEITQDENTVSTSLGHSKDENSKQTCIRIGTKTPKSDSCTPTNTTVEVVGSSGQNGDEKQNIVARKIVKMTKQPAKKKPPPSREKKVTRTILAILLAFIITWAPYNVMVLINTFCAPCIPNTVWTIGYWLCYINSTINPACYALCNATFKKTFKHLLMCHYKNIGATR
The following applies: Compound concentration 10.0 uM.

Experiment [14] addresses Purinergic P2Y (Rattus norvegicus) (UniProt O35811+Q9EPX4+P49651+Q63371+P41232+O35881+Q6GUG4). To be noted: Compound concentration 10.0 uM.
Experiment [15] concerns the target Sodium-dependent noradrenaline transporter (Homo sapiens) (UniProt P23975). The following applies: Compound concentration 10.0 uM.

Experimental findings from ChEMBL document CHEMBL4507269, “Data for DCP probe BAY-386” (2021) are described below.

Chain of 5-hydroxytryptamine receptor 5A (Homo sapiens) (P47898 whole entry): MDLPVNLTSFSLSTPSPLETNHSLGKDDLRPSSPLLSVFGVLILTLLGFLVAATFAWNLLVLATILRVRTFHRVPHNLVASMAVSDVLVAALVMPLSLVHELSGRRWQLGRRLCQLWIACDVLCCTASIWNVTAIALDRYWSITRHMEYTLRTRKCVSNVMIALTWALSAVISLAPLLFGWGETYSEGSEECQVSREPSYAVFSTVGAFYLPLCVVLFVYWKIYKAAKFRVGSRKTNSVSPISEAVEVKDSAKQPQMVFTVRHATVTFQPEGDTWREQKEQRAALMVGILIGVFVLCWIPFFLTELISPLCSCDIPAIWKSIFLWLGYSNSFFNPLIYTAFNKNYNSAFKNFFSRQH
Chain of Neuropeptide Y receptor type 1 (Homo sapiens) (P25929 whole entry): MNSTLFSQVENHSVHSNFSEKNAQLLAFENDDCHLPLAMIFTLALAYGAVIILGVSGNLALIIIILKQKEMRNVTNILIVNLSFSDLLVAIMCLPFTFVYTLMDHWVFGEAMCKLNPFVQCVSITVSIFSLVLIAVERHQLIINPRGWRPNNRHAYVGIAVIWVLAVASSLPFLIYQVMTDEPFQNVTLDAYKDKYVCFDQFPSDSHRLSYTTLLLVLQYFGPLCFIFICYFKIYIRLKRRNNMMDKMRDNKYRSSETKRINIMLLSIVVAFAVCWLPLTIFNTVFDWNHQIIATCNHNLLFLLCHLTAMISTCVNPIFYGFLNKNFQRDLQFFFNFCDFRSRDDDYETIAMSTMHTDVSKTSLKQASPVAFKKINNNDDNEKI
Chain of Sigma non-opioid intracellular receptor 1 (Homo sapiens) (Q99720 whole entry): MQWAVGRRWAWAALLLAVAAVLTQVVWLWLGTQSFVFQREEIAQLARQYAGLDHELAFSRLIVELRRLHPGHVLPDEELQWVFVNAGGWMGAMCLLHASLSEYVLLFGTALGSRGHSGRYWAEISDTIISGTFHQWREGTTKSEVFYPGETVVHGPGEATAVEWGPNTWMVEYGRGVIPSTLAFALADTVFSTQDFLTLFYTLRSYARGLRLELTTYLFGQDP
Chain of Histamine H2 receptor (Homo sapiens) (P25021 whole entry): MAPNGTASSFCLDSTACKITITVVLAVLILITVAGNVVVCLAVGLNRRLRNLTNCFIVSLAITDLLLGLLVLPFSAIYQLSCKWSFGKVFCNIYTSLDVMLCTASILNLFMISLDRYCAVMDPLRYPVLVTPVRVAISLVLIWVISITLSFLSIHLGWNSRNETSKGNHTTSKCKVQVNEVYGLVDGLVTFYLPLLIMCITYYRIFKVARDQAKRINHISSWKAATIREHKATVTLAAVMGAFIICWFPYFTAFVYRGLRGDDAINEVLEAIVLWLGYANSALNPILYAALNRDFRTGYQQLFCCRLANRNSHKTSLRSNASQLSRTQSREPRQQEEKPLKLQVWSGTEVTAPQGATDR
Chain of Histamine H1 receptor (Homo sapiens) (P35367 whole entry): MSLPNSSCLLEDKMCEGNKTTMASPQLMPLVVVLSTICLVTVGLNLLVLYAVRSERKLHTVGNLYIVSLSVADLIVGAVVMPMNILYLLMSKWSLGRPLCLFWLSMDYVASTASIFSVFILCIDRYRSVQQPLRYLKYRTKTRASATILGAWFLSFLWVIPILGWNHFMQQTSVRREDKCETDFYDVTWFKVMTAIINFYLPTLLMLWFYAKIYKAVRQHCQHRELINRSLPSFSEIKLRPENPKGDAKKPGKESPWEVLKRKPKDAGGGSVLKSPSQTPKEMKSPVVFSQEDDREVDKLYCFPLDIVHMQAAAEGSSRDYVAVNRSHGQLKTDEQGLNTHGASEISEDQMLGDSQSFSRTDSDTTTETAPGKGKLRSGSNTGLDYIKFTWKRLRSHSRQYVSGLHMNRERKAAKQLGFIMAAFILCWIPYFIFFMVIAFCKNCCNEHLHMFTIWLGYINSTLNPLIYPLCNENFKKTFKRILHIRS
Chain of Endothelin-1 receptor (Homo sapiens) (P25101 whole entry): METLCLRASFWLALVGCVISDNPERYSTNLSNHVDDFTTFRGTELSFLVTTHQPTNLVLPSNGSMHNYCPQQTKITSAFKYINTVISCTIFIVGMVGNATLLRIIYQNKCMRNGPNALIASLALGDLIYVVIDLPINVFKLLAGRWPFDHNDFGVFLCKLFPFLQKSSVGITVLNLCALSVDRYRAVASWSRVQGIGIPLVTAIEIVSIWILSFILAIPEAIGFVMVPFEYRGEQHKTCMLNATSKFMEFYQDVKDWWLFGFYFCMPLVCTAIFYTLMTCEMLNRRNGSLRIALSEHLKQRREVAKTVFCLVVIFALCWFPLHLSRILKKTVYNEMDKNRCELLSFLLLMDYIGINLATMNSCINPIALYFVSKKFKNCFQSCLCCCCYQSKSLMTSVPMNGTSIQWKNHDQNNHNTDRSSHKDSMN
Chain of Sodium-dependent noradrenaline transporter (Homo sapiens) (P23975 whole entry): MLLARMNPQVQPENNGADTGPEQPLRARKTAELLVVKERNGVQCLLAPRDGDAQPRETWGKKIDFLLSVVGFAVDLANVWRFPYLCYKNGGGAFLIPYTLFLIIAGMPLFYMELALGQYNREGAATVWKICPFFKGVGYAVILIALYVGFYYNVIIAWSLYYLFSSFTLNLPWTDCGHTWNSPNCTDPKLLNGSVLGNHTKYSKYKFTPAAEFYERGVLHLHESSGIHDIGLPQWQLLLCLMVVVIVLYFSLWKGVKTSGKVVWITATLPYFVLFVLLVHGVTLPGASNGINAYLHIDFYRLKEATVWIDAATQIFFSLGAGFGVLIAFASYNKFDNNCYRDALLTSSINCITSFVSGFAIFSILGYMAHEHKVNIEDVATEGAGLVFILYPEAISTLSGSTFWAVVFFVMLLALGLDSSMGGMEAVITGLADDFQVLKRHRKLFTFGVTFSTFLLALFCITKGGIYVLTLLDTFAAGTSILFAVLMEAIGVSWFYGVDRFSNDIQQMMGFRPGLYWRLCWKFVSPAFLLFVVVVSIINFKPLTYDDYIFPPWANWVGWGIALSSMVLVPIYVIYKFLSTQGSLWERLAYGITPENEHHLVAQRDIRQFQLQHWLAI

Consider `O=C(N1CCS(=O)(=O)CC1)N1C[C@H](c2ccc(OC(F)(F)F)cc2)C[C@H](c2nc(C3CC3)no2)C1` [BAY-386], for which the inhibition was -4% in experiment [1]; 1% in [2]; 5% in experiment [3]; 9% in experiment [4]; 12% in experiment [5]; 10% in experiment [7]. Moreover, the inhibition is 12% in experiment [8]; 2% in [9]; 0% in [10]; -3% in experiment [11]; -3% in experiment [12]; -3% in experiment [13]. In addition, the inhibition is 12% in experiment [14] and 17% in experiment [15]. In experiment [6], the IC50 stood at 430 nM.

Broadly, the inhibition is the change of the read-out against control, counted positive when it falls. In general, IC50 refers to the concentration that gives 50% inhibition. Low readings indicate higher potency, high ones lower potency.
